How the values were obtained:
[1] = tested on: Adenovirus 5 (AdV5); assay: Cytopathic effects (CPE) reduction assay, AdV5 in HFF cells, 384-well; assay type: cell-based, human adenovirus
[2] = Cytotoxicity, CellTiter-Glo cell viability assay in HFF cells; details: human, human foreskin fibroblast (HFF) cell monolayers
Protocol: Human foreskin tissue was obtained from the University of Alabama at Birmingham tissue procurement facility with approval from the Institutional Review Board. The tissue was stored at 4° C. in cell culture medium consisting of minimum essential media (MEM) with Earle's salts supplemented with 10% fetal bovine serum (FBS; HyClone, Inc., Logan, Utah) and standard concentration of L-glutamine, amphotericin B (Fungizone), and vancomycin. The tissue was then placed in a phosphate-buffered saline solution, minced, and rinsed to remove the red blood cells. Tissue fragments were then resuspended in a trypsin-EDTA solution and incubated at 37° C. to disperse the cells, which were then collected by centrifugation. Cell pellets were then resuspended in 4 ml culture medium, placed in a 25-cm^2 tissue culture flask, and incubated at 37° C. for 24 h. The culture medium was then replaced with fresh medium and condition of the cells was monitored daily until a confluent cell monolayer was formed. The HFF cells were then expanded through serial passages in standard growth medium of MEM with Earle's salts supplemented with 10% FBS, L-glutamine, penicillin, and gentamicin. Each lot of cells was confirmed to be free of mycoplasma infection and routinely passaged or used for assays at or before passage 10.
Antiviral and cytotoxicity data were obtained in a series of three to five separate experiments for each virus to provide an accurate estimate of antiviral activity and statistical data. Each assay included positive and negative control compounds as well as infected and uninfected controls to ensure the integrity of the experiment.
The CPE reduction assays were performed in monolayers of human foreskin fibroblast (HFF) cells (5000/well) in 384-well plates in assay media consisting of MEM with Earle's salts, 2% FBS and standard concentrations of L-glutamine, penicillin and gentamycin. 5000 cells were seeded in 384-well microtiter plates and incubated at 37° C. in a humidified 5% CO2 incubator for 24 hours to allow for formation of confluent monolayers.
Cell monolayers were infected at a multiplicity of infection (MOI) of approximately 0.005 PFU/cell with virus strains including AdV5. […] Cytopathology was determined by the addition of CellTiter-Glo® reagent (Promega, Madison, Wis.). Concentrations of antiviral test compounds sufficient to reduce CPE by 50% (EC50) were interpolated from the experimental data using standard methods in Microsoft® Excel.

[3] = tested on: adenovirus 6 (AdV6); assay: CPE reduction assay, adenovirus 6; assay type: cell-based, human adenovirus
Protocol: (§1) Similar experiments were carried out with filociclovir against adenovirus 6, adenovirus 7, and adenovirus 8.

[4] = tested on: adenovirus 7 (AdV7); assay: CPE reduction assay, adenovirus 7; assay type: cell-based, human adenovirus
Protocol: as §1

[5] = tested on: adenovirus 6 (AdV6); assay: Neutral red survival assay, AdV6-infected A549 cells; assay type: cell-based, human adenovirus; details: FIG. 2, A549 cells, 6 days post-infection
Text: The neutral red cell cytotoxicity assay was used to detect cell viability or drug cytotoxicity. The principle of this assay is based on the detection of viable cells via the uptake of the dye neutral red. Neutral red is a eurhodin dye that stains lysosomes in viable cells. Viable cells can take up neutral red via active transport and incorporate the dye into their lysosomes, but non-viable cells are unable not take up this chromophore. Consequently, after washing, viable cells can release the incorporated dye under acidified-extracted conditions. The amount of released dye can be quantified and used to determine the total number of viable cells or drug cytotoxicity. As such, cytotoxicity is expressed as a concentration-dependent reduction of the uptake of neutral red after exposure to the compound under investigation.
The neutral red survival assays were carried out in a 96-well format. Briefly, A549 adenocarcinomic human alveolar basal epithelial cells were plated at a concentration of 6×10^3 cells per well one day prior to infection. AdV6 infections were carried out at 5×10^3 PFU per well (an estimated 0.5 PFU/cell at the time of infection). […] Filociclovir plates were read and the results were graphed using GraphPad Prism graphing and statistical software (GraphPad Software, San Diego, Calif.).

[6] = tested on: AdV5; assay: Immunofluorescence assay (DBP and hexon staining), AdV5-infected A549 cells; assay type: cell-based, human adenovirus; details: 27 hours post-infection
Protocol: (§2) Human A549 cells on glass coverslips in 6-well plates were infected at an MOI of 5 PFU/cell with either AdV5 or AdV6 or were mock-infected. After 1 hour, filociclovir was added to a final concentration of 0, 4, 10, or 40 μM. At 27 hours post-infection, the A549 cells were fixed in paraformaldehyde (3.7% in PBS) and permeabilized with methanol. Cells were stained for the Adenovirus DNA-binding protein and adenovirus hexon. DBP staining will be […] and uniform during early AdV infection (prior to AdV DNA replication). DBP associates with replication centers as the infection progresses. The replication centers are initially small “dots” (each dot results from one incoming AdV genome). The replication centers will expand and “multiply” as DNA replication takes place. The nuclei become enlarged and misshapen as infection progresses. AdV hexon, the most abundant component of the AdV viral capsid, is not expressed until after DNA replication is taking place and is therefore considered to be a “late” AdV protein.

[7] = tested on: AdV6; assay: Immunofluorescence assay (DBP and hexon staining), AdV6-infected A549 cells; assay type: cell-based, human adenovirus; details: 27 hours post-infection
Protocol: as §2

[8] = tested on: adenovirus; assay: Dose-dependent inhibition of adenovirus infection (summary statement); assay type: cell-based; details: unidentified adenovirus
[9] = tested on: adenovirus 37 (AdV37); assay: Efficacy against adenovirus 37 (data not shown)

In the case of `Nc1nc2c(ncn2/C=C2/CC2(CO)CO)c(=O)[nH]1` [FCV, 2-amino-9-{(Z)-[2,2-bis(hydroxymethyl)cyclopropylidene]methyl}-3,9-dihydro-6H-purin-6-one], the “concentration as low as which is effective to reduce AdV replication” value ([1]; FIG. 1, AdV5) is reported as 0.2 µM, the EC50 ([1]; Human mastadenovirus C, AdV5, HFF cells, 384 well CPE, average and SD from five independent experiments, read-out: EC50) is reported as 2.2 ± 0.4 µM and the CC50 ([2]; CC50, AdV6 line of Table 2, unit inferred) is reported as greater than 100 µM. It also gave a CC50 ([2]; CC50, AdV7 line of Table 2, unit inferred) greater than 150 µM, a CC50 ([2]; CC50, AdV8 line of Table 2, unit inferred) greater than 150 µM and a CC50 ([2]; CC50, HFF cells, run with AdV5 assay, average and SD from five independent experiments) of 95 ± 10.6 µM. The CC50 ([2]; mammalian cytotoxicity (CC50), summary statement, 'preferably') was 100 to 150 µM, the CC50/EC50 [3] was 27 and the EC50 ([3]; Human mastadenovirus C, unit not given in Table 2 (Table 1 in μM)) was 3.67 µM. For the same compound, the CC50/EC50 [4] was greater than 144, the EC50 ([4]; Human mastadenovirus B, unit not given in Table 2 (Table 1 in μM)) was 1.04 µM and the “concentration as low as which is effective to improve viability of AdV6 infected cells” value [5] was 10^−1 μM. For the same compound, the hexon-positive cells ([6]; AdV5, 4 μM) was “Some hexon-positive cells”, the hexon-positive cells ([6]; AdV5, 10 μM) was “extremely few hexon-positive cells” and the hexon-positive cells ([6]; AdV5, 40 μM) was “No hexon-positive cells”. For the same compound, the hexon-positive cells ([7]; AdV6, 4 μM) was “Some hexon-positive cells”, the hexon-positive cells ([7]; AdV6, 10 μM) was “extremely few hexon-positive cells” and the hexon-positive cells ([7]; AdV6, 40 μM) was “No hexon-positive cells”. For the same compound, the IC50 [8] was no more than 5 µM and the “treat or prevent infection” value [9] was “effective”.
